The term Ki denotes a dissociation constant, usually derived from enzyme kinetics or from competition with a known ligand. What is called IC50 is the concentration that inhibits the measured activity by half.

Results on two compounds are retold here after US9303017B2, “2,5-disubstituted-pyridyl nicotinic ligands, and methods of use thereof” (Georgetown University, priority 2011, dated 2016).

Structures are written as SMILES. Read-outs that look alike come from different tables or passages of the source.

One assay concerns the target α2β4 nAChR (Rattus norvegicus (Rat), UniProt P12389+P12392). Description: [3H]-epibatidine competition binding, α2β4. Particulars: Table 1; mean of 3 to 5 measurements. The method, then: (§1) In Vitro Binding Affinities for nAChR Subtypes. […] To determine selectivities of these compounds in binding assays among the three predominant nAChR subtypes, α3β4, α4β2 and α7, the ratios of Ki values (α3β4/α4β2 and α7/α4β2) were determined.
(§2) Cell Lines and Cell Culture. The cell lines expressing defined rat nAChR subtypes were established previously by stably transfecting HEK 293 cells with rat nAChR subunit genes. The cell line expressing human α4β2 nAChRs, YXα4β2H1, was established recently. These cell lines were maintained in minimum essential medium (MEM) supplemented with 10% fetal bovine serum, 100 units/mL penicillin G, […] and selective antibiotics at 37° C. with 5% CO2 in a humidified incubator. Fetal bovine serum was provided by Gemini Bio-Products (Woodland, Calif.). […]
(§3) Briefly, cultured cells at >80% confluence were removed from their flasks (80 cm^2) with a disposable cell scraper and placed in 10 mL of 50 mM Tris.HCl buffer (pH 7.4, 4° C.). […] The filter-retained radioactivity was measured by liquid scintillation counting. […] Data from competition binding assays were analyzed using Prism 5 (GraphPad Software, San Diego, Calif.).
(§4) Pharmacological Properties. We measured the in vitro binding affinities of the ligands for defined receptor subtypes (α2β2, α2β4, α3β2, α3β4, α4β2, α4β4, α6β2, α6β4, and α7) expressed in stably transfected cell lines. […]

Another assay addresses rat α3β4 nAChRs (Rattus norvegicus (Rat), UniProt P04757+P12392). The experiment in a line: 86Rb+ efflux assay (activation and desensitization), α3β4. It counts as cell-based. The method, then: (§5) In Vitro Effects on nAChR Function. […] Their agonist activities were assessed by measuring stimulated ^86Rb^+ efflux from stably transfected cells, either expressing human α4β2 nAChRs or rat α3β4 receptors.
(§6) Cell Lines and Cell Culture. The cell lines expressing defined rat nAChR subtypes were established previously by stably transfecting HEK 293 cells with rat nAChR subunit genes. The cell line expressing human α4β2 nAChRs, YXα4β2H1, was established recently. These cell lines were maintained in minimum essential medium (MEM) supplemented with 10% fetal bovine serum, 100 units/mL penicillin G, […] and selective antibiotics at 37° C. with 5% CO2 in a humidified incubator. Fetal bovine serum was provided by Gemini Bio-Products (Woodland, Calif.). Tissue culture medium and antibiotics were obtained from Invitrogen Corporation (Carlsbad, Calif.), unless otherwise stated.
(§7) ^86Rb^+ Efflux Assay. Functional properties of compounds at nAChRs expressed in the transfected cells were measured using ^86Rb^+ efflux assays as described previously. In brief, cells expressing human α4β2 or rat α3β4 nAChRs were plated into 24-well plates coated with poly-D-lysine. The plated cells were grown at 37° C. for 18 to 24 hour to reach 85-95% confluence. The cells were then incubated in growth medium (0.5 mL/well) containing ^86Rb^+ (2 μCi/mL) for 4 hour at 37° C. The loading mixture was then aspirated, and the cells were washed four times with 1 mL buffer (15 mM HEPES, 140 mM NaCl, 2 mM KCl, 1 mM MgSO4, 1.8 mM CaCl2, 11 mM Glucose, pH 7.4). One mL of buffer with or without compounds to be tested was then added to each well. After incubation for 2 min, the assay buffer was collected for measurements of ^86Rb^+ released from the cells. Cells were then lysed by adding 1 mL of 100 mM NaOH to each well, and the lysate was collected for determination of the amount of ^86Rb^+ that was in the cells at the end of the efflux assay. Radioactivity of assay samples and lysates was measured by liquid scintillation counting. Total loading (cpm) was calculated as the sum of the assay sample and the lysate of each well. The amount of ^86Rb^+ efflux was expressed as a percentage of ^86Rb^+ loaded. […] For obtaining EC50 and Emax values, stimulation curves were constructed in which 8 different concentrations of a ligand were included in the assay. […] EC50, Emax and IC50(10′) values were determined by nonlinear least-squares regression analyses (GraphPad, San Diego, Calif.).
(§8) The functional properties of the ligands were determined by ^86Rb^+ efflux assays in cells expressing α3β4 and α4β2 nAChR subtypes. The functional activity of each ligand was measured for its agonism, antagonism and desensitization ability. Agonist activity for each of the ligands was tested at eight different concentrations. […] The full concentration-effect curves generated potency (EC50) and efficacy (Emax) of each ligand. […] We tested each ligand for antagonist activity at eight concentrations. The potency (IC50(0′)) of each ligand as an antagonist was derived from the full concentration-effect curves.

In another assay the target is α3β4 nAChR (Rattus norvegicus (Rat), UniProt P04757+P12392). The experiment in a line: [3H]-epibatidine competition binding, α3β4. How it is done: as §1, §6
(§9) Briefly, cultured cells at >80% confluence were removed from their flasks (80 cm^2) with a disposable cell scraper and placed in 10 mL of 50 mM Tris.HCl buffer (pH 7.4, 4° C.). The cell suspension was centrifuged at 10,000×g for 5 min and the pellet was collected. The cell pellet was then homogenized in 10 mL buffer with a polytron homogenizer and centrifuged at 36,000 g for 10 min at 4° C. The membrane pellet was resuspended in fresh buffer, and aliquots of the membrane preparation were used for binding assays. […] Bound and free ligands were separated by vacuum filtration through Whatman GF/C filters treated with 0.5% polyethylenimine. The filter-retained radioactivity was measured by liquid scintillation counting. Specific binding was defined as the difference between total binding and nonspecific binding. Data from competition binding assays were analyzed using Prism 5 (GraphPad Software, San Diego, Calif.).
(§10) Pharmacological Properties. We measured the in vitro binding affinities of the ligands for defined receptor subtypes (α2β2, α2β4, α3β2, α3β4, α4β2, α4β4, α6β2, α6β4, and α7) expressed in stably transfected cell lines. […] Rat forebrain homogenates were included to allow comparison between the heterologous and native α4β2 and α7 nAChRs. See Table 1 for binding affinity values (Ki) of the ligands at the three major nAChR subtypes (α3β4. α4β2 and α7).

A further assay deals with human α4β2 nAChRs (Homo sapiens (Human), UniProt P17787+P43681). Description: 86Rb+ efflux assay (activation and desensitization), α4β2. Format: cell-based. As to conditions: for Emax α4β2 nAChRs: agonist efficacy normalized to Emax of nicotine, ND = no significant stimulated efflux detected; for IC50: desensitization. How it is done:
as §5, §6, §7, §8

For the next assay, the target named is α4β2 nAChR (Rattus norvegicus (Rat), UniProt P09483+P12390). The experiment in a line: biochemical. Format: binding. Particulars: for Ki: read-out: Ki α4β2. How it is done:
as §1, §6, §9, §10

The next assay deals with α2β2 nAChR (Rattus norvegicus (Rat), UniProt P12389+P12390). The experiment in a line: [3H]-epibatidine competition binding, α2β2. As to conditions: Table 1; mean of 3 to 5 measurements. The method, then:
as §1, §2, §3, §4

A further assay addresses α7 nAChR (Rattus norvegicus (Rat), UniProt Q05941). Format: binding. How it is done:
as §1, §6, §9, §10

A further assay has as its target α4β4 nAChR (Rattus norvegicus (Rat), UniProt P09483+P12392). Description: [3H]-epibatidine competition binding, α4β4. As to conditions: Table 1; mean of 3 to 5 measurements. The method, then:
as §1, §2, §3, §4

The next assay has as its target α3β2 nAChR (Rattus norvegicus (Rat), UniProt P04757+P12390). Description: [3H]-epibatidine competition binding, α3β2. As to conditions: Table 1; mean of 3 to 5 measurements. How it is done: as §1, §2, §3, §4
[1] abbreviates: read-out: IC50(10′) α3β4 nAChRs.
[2] abbreviates: Table 1, mean of 3 to 5 measurements.
Setting [3] is: 10 min pre-treatment, Table 3 (Example 4), read-out: IC50(10′) α4β2.
Where [4] appears, read: 10 min pre-incubation before 100 μM nicotine, Table 2, read-out: IC50(10′) α4β2 nAChRs.

Regarding `Cc1ncc(C#CCCCCCl)cc1OC[C@@H]1CCN1` [(S)-21, (S)-3-(azetidin-2-ylmethoxy)-5-(6-chlorohex-1-ynyl)-2-methylpyridine], the Ki was determined as 29 µM at α2β4 nAChR; 92 µM on α3β4 nAChR (setting [2]); 86 µM at α3β4 nAChR (Table 3 (Example 4)); 0.0053 µM on α4β2 nAChR (setting [2]); 0.0047 µM on α4β2 nAChR (Table 3 (Example 4)); 0.0086 µM on α2β2 nAChR. In addition, the Ki at α7 nAChR (setting [2]) came to 67 µM; at α7 nAChR (Table 3 (Example 4)), 67.2 µM; at α4β4 nAChR, 3.7 µM; at α3β2 nAChR, 0.3 µM. Also, the IC50 at rat α3β4 nAChRs (read-out: IC50(10′) α3β4) is 11 µM; on rat α3β4 nAChRs (setting [1]), more than 10 µM; at human α4β2 nAChRs (setting [3]), 0.27 µM; at human α4β2 nAChRs (setting [4]), 0.26 µM. For the same compound, the “Emax α4β2 nAChRs” value at human α4β2 nAChRs is on record as “didn't show detectable agonist activity”. Moreover, the “Ki Ratio α3β4/α4β2” value at α4β2 nAChR (selectivity for α4β2 over α3β4) is reported as 17,000. The “Ki Ratio α7/α4β2” value on α4β2 nAChR (selectivity for α4β2 over α7) is 13,000.

Consider `Cc1ncc(C#CCCCCF)cc1OC[C@@H]1CCN1` [(S)-22, (S)-3-(azetidin-2-ylmethoxy)-5-(6-fluorohex-1-ynyl)-2-methylpyridine], for which the Ki on α2β4 nAChR was found to be 24 µM; on α3β4 nAChR (setting [2]), 150 µM; on α3β4 nAChR (Table 3 (Example 4)) it was 130 µM; on α2β2 nAChR, 0.0087 µM; on α7 nAChR (setting [2]), 150 µM; at α7 nAChR (Table 3 (Example 4)), 150 µM. Also, the Ki at α4β4 nAChR is 3 µM; on α3β2 nAChR, 0.23 µM. Further, the IC50 was 13 µM on rat α3β4 nAChRs (read-out: IC50(10′) α3β4), more than 10 µM on rat α3β4 nAChRs (setting [1]), 0.14 µM at human α4β2 nAChRs (setting [3]) and 0.13 µM at human α4β2 nAChRs (setting [4]). For the same compound, on human α4β2 nAChRs, the “Emax α4β2 nAChRs” value is recorded as “didn't show detectable agonist activity”.
